The results in this text go back to paper PMC9240639, “Williams-Beuren Syndrome Related Methyltransferase WBSCR27: From Structure to Possible Function” (Frontiers in Molecular Biosciences, 2022).

The target of the test is T1, WBSCR27 (Mus musculus, UniProt Q8BGM4).
T1 construct: gene Mettl27; recombinant in E. coli, Ni-NTA, His-tag cleaved; isotope-labelled for NMR
T1 sequence (Q8BGM4 1-238): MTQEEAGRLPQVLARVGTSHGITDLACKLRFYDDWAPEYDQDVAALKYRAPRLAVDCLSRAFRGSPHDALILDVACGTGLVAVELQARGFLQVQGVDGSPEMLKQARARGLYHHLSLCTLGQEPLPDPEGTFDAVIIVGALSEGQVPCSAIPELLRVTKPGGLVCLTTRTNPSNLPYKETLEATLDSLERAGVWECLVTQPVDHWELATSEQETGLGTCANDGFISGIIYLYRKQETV
As to the kind of experiment: […],1H HSQC NMR of epimer mixture with protein. Format: binding. The following applies: 308 K, labelled compound (methyl 13C), 0.05 mM each.

On to `C[S+](CC[C@H](N)C(=O)O)C[C@H]1O[C@@H](n2cnc3c(N)ncnc32)[C@H](O)[C@@H]1O` (stereo partly drawn) [(S,S)-SAM], for which, where the note is “equimolar mixture with (R,S)-SAM”, the “13C,1H HSQC NMR of epimer mixture with protein” value is on record as “WBSCR27 preferably binds the (S,S) stereoisomer”.

Turning to `C[S+](CC[C@H](N)C(=O)O)C[C@H]1O[C@@H](n2cnc3c(N)ncnc32)[C@H](O)[C@@H]1O` (mixture of isomers) [(R,S)-SAM], under “equimolar mixture with (S,S)-SAM, seen bound only at the higher protein ratio”, the “13C,1H HSQC NMR of epimer mixture with protein” value was “This indicates a significantly lower affinity of the (R,S)-epimer compared with the (S,S)-epimer”.
